Experiments:
[1] = Stability of the compound in liver microsomes (rat); assay type: in vitro ADME, SD rat; conditions: 1 μM compound, 0.5 mg protein/mL
Experimental: (§1) 2.1.1. working solution: 5 μL of test or control compound stock solution (10 mM DMSO solution) was diluted with 495 μL of acetonitrile (ACN) to obtain an intermediate stock solution (100 μM, 99% ACN).
(§2) 2.2.2 Preparation procedure: An appropriate amount of NADPH powder was weighed and diluted with 10 mM MgCl2 buffer (working solution concentration: 10 mM; final reaction system concentration: 1 mM).
(§3) 2.3.2 Preparation procedure: The appropriate concentration of liver microsomal working solution was prepared in 100 mM potassium phosphate buffer;
(§4) Acetonitrile (ACN) solution at 4° C. containing 200 ng/mL of Tolbutamide and 200 ng/ml of labetalol as internal standards 2.5. Operation steps:
(§5) 2.5.2. Diluting liver microsomes with 100 mM potassium phosphate buffer to a concentration of 0.56 mg/mL.
(§6) 2.5.3. Transferring 445 μL of liver microsomal working solution (0.56 mg/mL) to pre-heated incubation plates T60 and NCF60, and then pre-heating the incubation plates T60 and NCF60 for 10 minutes at 37° C. with shaking. Transferring 54 μL of liver microsomes to each well of the blank plate, adding 6 μL of NAPDH coenzyme solution to the blank plate, and finally transferring 180 μL of termination solution to the blank plate.
(§7) 2.5.4 Adding 5 μL of compound working solution (100 μM) to the incubation plates T60 and NCF60 containing liver microsomes and mixing three times.
(§8) 2.5.5. Adding 50 μL of buffer to the NCF60 plate and mixing three times, starting the timer and incubating at 37° C. for 60 min with the plate shaking.
(§9) 2.5.6. Adding 180 μL of quenching solution and 6 μL of NAPDH coenzyme working solution sequentially to quenching plate TO, making sure that the plate was cold to prevent volatilization of the incubation solution.
(§10) 2.5.7. For plate T60, mixing well three times and immediately transferring 54 μL of mixing solution (0-min time point) to quenching plate TO, then adding 44 μL of NAPDH coenzyme working solution to incubation plate T60. Starting the timer:
(§11) 2.5.8. At the 5, 15, 30, 45 and 60 minute time points, adding 180 μL of quenching solution to the quenching plate and transferring 60 μL of reaction solution from the T60 plate to the quenching plate at each time point.
(§12) 2.5.9. For NCF60 plates, mixing well and transferring 60 μL of reaction solution from the NCF60 incubating solution to a quenching plate containing 180 μL of quenching solution at 60th minute.
(§13) 2.5.10. All plates were mixed on a shaker for 10 min and then centrifuged at 4000 rpm at 4° C. for 20 min.
(§14) 2.5.11. Transferring 80 μL of supernatant to 240 μL of HPLC water and mixing on a
(§15) 2.6.1. Calculating t1/2 and Clint (mic) values based on first-order elimination kinetics: […]

[2] = Stability of the compound in liver microsomes (mouse); assay type: in vitro ADME, CD-1 mouse; conditions: 1 μM compound, 0.5 mg protein/mL
Experimental: as §1, §2, §3, §4, §5, §6, §7, §8, §9, §10, §11, §12, §13, §14, §15

Nav1.8 sodium channel = Nav1.8 sodium channel (Homo sapiens (Human), UniProt Q9Y5Y9); assay: NaV1.8 blocking activity, manual patch clamp; assay type: cell-based; conditions: CHO cell line stably expressing Nav1.8
Experimental: The NaV1.8 blocking activity was determined by using a manual patch clamp technique to detect the effect of the subject on the channel currents of stably overexpressed Nav1.8.
CHO cell line stably expressing the Nav1.8 sodium channel was used for the experiments, gene information: sodium channel, voltage-gated, type 8, alpha (SCN10A), cDNA strictly similar to GenBank accession number: NM 006514.
Cells were cultured in HAM'S/F-12 medium containing 10% foetal bovine serum and 10 μg/mL Blasticidin, 200 μg/mL Hygromycin B, and 100 μg/mL Zeocin at 37° C., 5% CO2. For expansion or maintenance cultures, cells were treated with 0.25%-Trypsin-EDTA, washed and centrifuged, and then inoculated in 6-cm cell culture dishes with 2.5×10^5lls per cell culture dish (final volume: 5 mL).
Prior to the patch clamp detection, cells were separated with 0.25%-Trypsin-EDTA and 6.5×10^3 cells were spread onto coverslips and incubated (final volume: 500 μL) in 24-well plates for 18 hours, then the test was performed.
50 mM CsCl, 10 mM NaCl, 10 mM HEPES, 60 mM CsF, 20 mM EGTA, and pH was adjusted to 7.2 with CsOH. • Instrument information is provided in Table 2 below:
Prior to Nav1.8 channel current testing, a blank control solution (DMSO) was diluted into 10 ml of extracellular fluid as the working solution. Positive controls and subjects were first diluted with different doses of DMSO depending on the final concentration before being diluted as working solution using extracellular fluid. 100 nM TTX was added to each working solution to block the TTX-S current. The working solution was sonicated for 20 min before performing the patch clamp test detection.
Patch clamp manipulation: firstly, the capillary glass tube was drawn into a recording electrode using a microelectrode puller, then the electrode filled with intracellular fluid was loaded into the microelectrode holder, and the microelectrode manipulator was manoeuvred under an inverted microscope to immerse the electrode into the extracellular fluid and record the electrode resistance (Rpip). The electrode was then slowly contacted to the cell surface and negative pressure suction was given to form a GQ2 seal. At this time, fast capacitance compensation was performed and negative pressure was continually applied to suction through the cell membrane to form a whole-cell recording pattern. Finally, slow capacitance compensation was performed and experimental parameters such as series resistance (Rs) were recorded. No leakage compensation was given.
Drug administration was initiated when the Nav1.8 current was stabilized for whole-cell recordings, and the next concentration was detected after each drug concentration had acted for approximately 5 min (or until the current was stable). Cell-lined coverslips were placed in the recording bath under an inverted microscope, and the blank control external solution as well as the working solution of the compound to be tested flowed sequentially from low to high concentrations through the recording bath by using gravitational perfusion and thus acted on the cells, and a peristaltic pump was used to exchange fluids during the recording. The current detected by each cell in the compound-free external fluid served as its own control. Each concentration was repeated independently 2-3 times. All electrophysiological experiments were performed at room temperature.
The voltage stimulation scheme for whole-cell patch-clamp recording of Nav1.8 currents was as follows: when a whole-cell seal was formed, the voltage was clamped at −120 mV. The resting state recording of sodium currents was performed by maintaining the voltage for 5s and then depolarizing it to 0 mV, and then administering a depolarizing pulse (TP1) to 0 m V for 50 ms for detecting the resting state sodium currents. For half-inactivated state recording, the voltage was first stepped at different voltages and maintained for 5s and then a depolarizing pulse was given to 0 mV to detect the Vhalf. […]

[3] = Stability of the compound in liver microsomes (human); assay type: in vitro ADME; conditions: 1 μM compound, 0.5 mg protein/mL
Experimental: as §1, §2, §3, §4, §5, §6, §7, §8, §9, §10, §11, §12, §13, §14, §15

CYP2C19 = CYP2C19 (Homo sapiens (Human), UniProt P33261); assay: Human liver microsomal CYP inhibition test, CYP2C19; assay type: in vitro ADME; conditions: human liver microsomes 0.2 mg/mL; substrate S-mephenytoin
Experimental: (§16) 3.1 Buffer solutions: (1) potassium phosphate 100 mM; (2) magnesium chloride, 33 mM;
(§17) 3.2.3 Reservoir for compounds to be tested: Dissolving the compounds to be tested in DMSO to form a 10 mM DMSO solution.
(§18) 3.5.3 Adding 20 μL of substrate solution to the appropriate wells and 20 μL of potassium phosphate buffer to the blank wells;
(§19) 3.5.4 Adding 2 μL of different concentrations of target compounds (final concentrations from 0.05 μM to 50 μM, 7 concentrations in total) or standard inhibitors to each well, with 2 μL of methanol solution in the non-inhibitor and blank wells;
(§20) 3.5.5 Adding 1.012 mL of liver microsomes to 78.988 mL of potassium phosphate buffer, then adding 158 μL of liver microsomes solution to all wells; preheating the well plate for 10 minutes in a 37° C. water bath;
(§21) 3.5.6 Weighing 129.1 mg NADPH (purchased from SyncoZymes Co. Ltd.) and adding to 15.0 mL of 33 Mm MgCl2 solution to give a 10 mM concentration, adding 20 μL to each well;
(§22) 3.5.7 Mixing and incubating the well plate in a 37° C. water bath for 10 minutes, then adding 400 μL of cold termination solution at the appropriate time point;
(§23) 3.5.8 Centrifuging the sample at 4000 rpm for 20 minutes to precipitate the protein. Transferring 200 μL of supernatant to 100 μL of HPLC water and shaking for 10 minutes. The samples were analyzed by LC/MS/MS;
(§24) Percentage inhibition was plotted for blank control and different concentrations of target compounds by using XL fitting or SigmaPlot and the data were analyzed by non-linear regression. IC50 values were determined by using either 3-parameter or 4-parameter logistic equations.

CYP3A-M = CYP3A-M (Homo sapiens, UniProt P08684); assay: Human liver microsomal CYP inhibition test, CYP3A-M (midazolam); assay type: in vitro ADME; conditions: human liver microsomes 0.2 mg/mL; substrate Midazolam
Experimental: as §16, §17
(§25) 3.4.1 Preparation of human liver microsomal working solution (1.27×) (final concentration: 0.2 mg/mL)
as §18, §19, §20, §21, §22, §23, §24

CYP2D6 = CYP2D6 (Homo sapiens (Human), UniProt P10635); assay: Human liver microsomal CYP inhibition test, CYP2D6; assay type: in vitro ADME; conditions: human liver microsomes 0.2 mg/mL; substrate Dextromethorphan
Experimental: as §16, §17, §25, §18, §19, §20, §21, §22, §23, §24

CYP2C9 = CYP2C9 (Homo sapiens (Human), UniProt P11712); assay: Human liver microsomal CYP inhibition test, CYP2C9; assay type: in vitro ADME; conditions: human liver microsomes 0.2 mg/mL; substrate Diclofenac
Experimental: as §16, §17, §25, §18, §19, §20, §21, §22, §23, §24

CYP1A2 = CYP1A2 (Homo sapiens (Human), UniProt P05177); assay: Human liver microsomal CYP inhibition test, CYP1A2; assay type: in vitro ADME; conditions: microsomes
Experimental: as §16, §17, §25, §18, §19, §20, §21, §22, §23, §24

Nav1.8 sodium channel, sequence (Q9Y5Y9 whole entry): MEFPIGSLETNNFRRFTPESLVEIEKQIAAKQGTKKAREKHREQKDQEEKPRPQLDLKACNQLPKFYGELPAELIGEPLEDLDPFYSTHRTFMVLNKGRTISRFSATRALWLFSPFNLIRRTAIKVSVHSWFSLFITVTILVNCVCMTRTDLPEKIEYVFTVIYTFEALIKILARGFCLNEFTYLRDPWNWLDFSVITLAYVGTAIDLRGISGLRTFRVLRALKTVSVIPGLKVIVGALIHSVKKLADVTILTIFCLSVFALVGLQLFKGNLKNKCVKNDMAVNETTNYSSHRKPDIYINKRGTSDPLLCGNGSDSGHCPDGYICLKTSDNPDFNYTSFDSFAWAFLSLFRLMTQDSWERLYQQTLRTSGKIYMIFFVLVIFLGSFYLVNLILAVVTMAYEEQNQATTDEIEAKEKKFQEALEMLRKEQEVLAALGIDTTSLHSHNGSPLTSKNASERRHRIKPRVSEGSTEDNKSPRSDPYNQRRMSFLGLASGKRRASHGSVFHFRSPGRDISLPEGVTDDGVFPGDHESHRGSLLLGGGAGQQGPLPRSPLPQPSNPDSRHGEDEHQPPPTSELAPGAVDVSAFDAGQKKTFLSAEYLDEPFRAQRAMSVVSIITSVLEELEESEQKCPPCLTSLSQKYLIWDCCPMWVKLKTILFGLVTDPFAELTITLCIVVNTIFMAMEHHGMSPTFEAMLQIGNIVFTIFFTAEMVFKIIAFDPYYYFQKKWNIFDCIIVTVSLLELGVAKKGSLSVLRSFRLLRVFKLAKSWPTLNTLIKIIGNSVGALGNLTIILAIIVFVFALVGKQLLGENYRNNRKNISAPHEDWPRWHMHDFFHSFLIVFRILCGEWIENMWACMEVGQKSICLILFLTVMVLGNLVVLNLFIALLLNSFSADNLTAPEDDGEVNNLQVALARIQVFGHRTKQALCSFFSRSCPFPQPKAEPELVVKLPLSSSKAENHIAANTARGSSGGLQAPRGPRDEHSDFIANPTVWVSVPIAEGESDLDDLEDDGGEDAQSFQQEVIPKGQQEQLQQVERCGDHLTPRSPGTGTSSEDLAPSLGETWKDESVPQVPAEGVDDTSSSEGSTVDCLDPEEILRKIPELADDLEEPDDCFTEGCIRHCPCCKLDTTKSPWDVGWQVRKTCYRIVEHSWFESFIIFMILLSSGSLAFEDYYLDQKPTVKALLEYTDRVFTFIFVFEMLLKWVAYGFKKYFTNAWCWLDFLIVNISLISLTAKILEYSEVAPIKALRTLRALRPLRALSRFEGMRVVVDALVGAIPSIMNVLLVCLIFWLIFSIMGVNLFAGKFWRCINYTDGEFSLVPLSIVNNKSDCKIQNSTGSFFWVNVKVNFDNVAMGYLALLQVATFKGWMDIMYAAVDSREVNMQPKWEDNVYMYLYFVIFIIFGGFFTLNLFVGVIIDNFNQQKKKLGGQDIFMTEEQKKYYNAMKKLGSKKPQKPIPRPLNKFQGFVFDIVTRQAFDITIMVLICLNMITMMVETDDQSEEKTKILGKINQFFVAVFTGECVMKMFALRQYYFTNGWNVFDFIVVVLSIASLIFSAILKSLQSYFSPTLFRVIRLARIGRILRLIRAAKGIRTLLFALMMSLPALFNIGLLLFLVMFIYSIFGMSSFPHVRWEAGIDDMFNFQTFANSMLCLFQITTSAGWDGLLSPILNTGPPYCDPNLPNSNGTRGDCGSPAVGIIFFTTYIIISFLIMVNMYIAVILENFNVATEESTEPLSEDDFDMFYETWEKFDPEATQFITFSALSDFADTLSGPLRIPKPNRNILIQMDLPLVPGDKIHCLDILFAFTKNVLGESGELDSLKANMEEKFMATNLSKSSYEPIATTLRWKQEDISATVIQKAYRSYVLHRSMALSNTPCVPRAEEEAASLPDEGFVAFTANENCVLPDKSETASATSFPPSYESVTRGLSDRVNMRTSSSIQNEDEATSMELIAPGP
CYP2D6, sequence (P10635 whole entry): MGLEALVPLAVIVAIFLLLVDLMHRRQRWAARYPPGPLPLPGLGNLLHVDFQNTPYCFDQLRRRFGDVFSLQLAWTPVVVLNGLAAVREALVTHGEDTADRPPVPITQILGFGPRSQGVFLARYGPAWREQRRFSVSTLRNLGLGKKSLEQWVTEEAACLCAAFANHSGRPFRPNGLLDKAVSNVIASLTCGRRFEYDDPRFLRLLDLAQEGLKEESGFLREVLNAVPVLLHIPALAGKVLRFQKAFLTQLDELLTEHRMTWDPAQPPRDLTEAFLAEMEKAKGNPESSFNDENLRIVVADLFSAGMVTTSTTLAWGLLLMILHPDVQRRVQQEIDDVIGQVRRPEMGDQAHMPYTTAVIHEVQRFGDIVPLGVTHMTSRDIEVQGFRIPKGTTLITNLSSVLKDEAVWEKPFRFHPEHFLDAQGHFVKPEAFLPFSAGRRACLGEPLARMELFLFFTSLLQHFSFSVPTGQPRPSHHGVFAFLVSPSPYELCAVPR
CYP3A-M, sequence (P08684 2-503 limits assumed): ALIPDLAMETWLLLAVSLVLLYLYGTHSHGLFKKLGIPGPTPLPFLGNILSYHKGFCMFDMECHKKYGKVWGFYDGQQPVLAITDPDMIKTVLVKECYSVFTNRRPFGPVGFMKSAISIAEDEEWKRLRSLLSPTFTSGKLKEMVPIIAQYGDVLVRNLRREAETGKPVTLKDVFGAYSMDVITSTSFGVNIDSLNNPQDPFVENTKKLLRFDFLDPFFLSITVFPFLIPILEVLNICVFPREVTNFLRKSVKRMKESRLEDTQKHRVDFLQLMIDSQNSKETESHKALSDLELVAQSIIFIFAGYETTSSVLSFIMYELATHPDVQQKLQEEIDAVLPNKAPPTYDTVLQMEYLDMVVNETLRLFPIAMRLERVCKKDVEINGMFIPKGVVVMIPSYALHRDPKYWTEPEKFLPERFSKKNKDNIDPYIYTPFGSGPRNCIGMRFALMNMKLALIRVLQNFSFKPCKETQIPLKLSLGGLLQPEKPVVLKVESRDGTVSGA
CYP2C19, sequence (P33261 whole entry): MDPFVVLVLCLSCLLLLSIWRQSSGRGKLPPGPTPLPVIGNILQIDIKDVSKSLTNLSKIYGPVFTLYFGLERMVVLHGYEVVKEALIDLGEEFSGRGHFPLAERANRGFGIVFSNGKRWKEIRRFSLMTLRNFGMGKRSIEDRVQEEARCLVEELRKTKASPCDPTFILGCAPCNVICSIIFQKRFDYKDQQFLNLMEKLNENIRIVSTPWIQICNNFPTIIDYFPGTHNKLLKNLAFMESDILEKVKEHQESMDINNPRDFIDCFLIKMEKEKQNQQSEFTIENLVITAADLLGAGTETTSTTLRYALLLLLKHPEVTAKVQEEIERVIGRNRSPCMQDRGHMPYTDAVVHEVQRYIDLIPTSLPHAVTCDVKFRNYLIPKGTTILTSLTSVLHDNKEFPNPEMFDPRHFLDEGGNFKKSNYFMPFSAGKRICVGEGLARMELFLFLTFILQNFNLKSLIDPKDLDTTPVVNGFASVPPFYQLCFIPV
CYP1A2, sequence (P05177 whole entry): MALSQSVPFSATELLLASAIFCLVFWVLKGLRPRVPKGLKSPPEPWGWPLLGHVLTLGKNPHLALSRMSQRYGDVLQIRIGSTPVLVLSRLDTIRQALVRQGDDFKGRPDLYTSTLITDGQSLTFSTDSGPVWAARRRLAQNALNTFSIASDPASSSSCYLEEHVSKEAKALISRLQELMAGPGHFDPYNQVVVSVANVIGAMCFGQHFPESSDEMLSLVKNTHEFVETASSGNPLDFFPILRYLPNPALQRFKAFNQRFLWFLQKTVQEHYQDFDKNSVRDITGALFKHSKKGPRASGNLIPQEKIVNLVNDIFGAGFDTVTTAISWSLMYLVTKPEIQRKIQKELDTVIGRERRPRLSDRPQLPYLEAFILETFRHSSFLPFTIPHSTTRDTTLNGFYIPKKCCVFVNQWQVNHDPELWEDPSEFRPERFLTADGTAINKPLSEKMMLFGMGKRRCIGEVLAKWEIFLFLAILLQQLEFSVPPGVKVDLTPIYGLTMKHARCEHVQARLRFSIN
CYP2C9, sequence (P11712 whole entry): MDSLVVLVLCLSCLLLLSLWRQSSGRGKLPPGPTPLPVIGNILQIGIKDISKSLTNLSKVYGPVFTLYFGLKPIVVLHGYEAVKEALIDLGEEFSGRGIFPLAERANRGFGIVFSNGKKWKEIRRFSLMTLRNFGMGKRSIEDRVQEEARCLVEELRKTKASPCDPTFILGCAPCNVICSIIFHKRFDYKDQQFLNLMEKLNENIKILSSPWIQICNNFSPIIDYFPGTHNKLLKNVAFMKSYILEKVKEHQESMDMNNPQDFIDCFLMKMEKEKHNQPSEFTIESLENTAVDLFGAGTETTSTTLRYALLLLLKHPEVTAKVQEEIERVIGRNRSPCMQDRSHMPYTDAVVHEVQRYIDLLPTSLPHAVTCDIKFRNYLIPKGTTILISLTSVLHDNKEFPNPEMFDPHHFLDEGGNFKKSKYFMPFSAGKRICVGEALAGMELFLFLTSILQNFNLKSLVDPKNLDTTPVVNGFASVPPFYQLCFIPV

SMILES: COc1c([C@H]2[C@H](C(=O)Nc3ccnc(C(N)=O)c3)N[C@@](C)(C(F)(F)F)[C@H]2C)ccc(F)c1F [Compound 1, 4-((2R,3S,4S,5R)-3-(3,4-difluoro-2-methoxyphenyl)-4,5-dimethyl-5-(trifluoromethyl)pyrrolidine-2-carboxamido)pyridine amide]
- Rat liver microsomes T½ ([1]; 37° C.): 18.9 min
- Rat liver microsomes Residual (T = 60 min) ([1]; T = 60 min): 11.1%
- Mouse liver microsomes T½ ([2]; 37° C.): 41.9 min
- Mouse liver microsomes Residual (T = 60 min) ([2]; T = 60 min): 37.1%
- Blocking rate(%) @10 nM (Nav1.8 sodium channel): 97.98%
- IC50 (Nav1.8 sodium channel): 0.0013 µM
- Human liver microsomes T½ ([3]; 37° C.): 80.6 min
- Human liver microsomes Residual (T = 60 min) ([3]; T = 60 min): 58.4%

SMILES: COc1c([C@H]2[C@H](C(=O)Nc3ccc(F)c(C(=N)NO)c3)N[C@@](C)(C(F)(F)F)[C@H]2C)ccc(F)c1F.Cl [Compound 10, (2R,3S,4S,5R)-3-(3,4-difluoro-2-methoxyphenyl)-aza-(4-fluoro-3-(aza-hydroxycarbamimidoyl)phenyl)-4,5-dimethyl-5-(trifluoromethyl) pyrrolidine-2-carboxamide hydrochloride]
- IC50 (CYP2C19): 3.05 µM
- IC50 (CYP3A-M): 39.3 µM
- IC50 (CYP2D6): > 50 µM
- Blocking rate (%) @3 nM (Nav1.8 sodium channel; 3 nM): 95.18%
- Blocking rate(%) @10 nM (Nav1.8 sodium channel): 99.13%
- IC50 (CYP2C9): > 50 µM
- IC50 (CYP1A2): > 50 µM
